Entries after “also recorded” stand apart in the source; their conditions may differ. Bridge positions count the residues as written; N and C are the ends. Peptide text beside a SMILES is read from it.
Key:
[1] = tested on: glioma and melanoma cells; details: glioma (charybdotoxin) and melanoma (iberiotoxin); ref [12],[14]; cited from earlier work
Excerpt: (§1) For instance, several research projects have focused on the use of scorpion neurotoxins as potential new treatments against cancers.

glioblastoma = details: subject of clinical trials; ref [9],[12],[13]; cited from earlier work
Excerpt: as §1

[2] = tested on: anti-MTX mice polyclonal antibodies; assay: ELISA cross-antigenicity with anti-MTX serum; format: binding, mouse
Procedure: Upon retrieval of pre-immune serum via retro-orbital puncture, 30 µg of MTX1 or saline (0.9% NaCl) in complete Freund’s adjuvant was subcutaneously administered to 6-week-old mice on day 1. Subsequent booster injections of incomplete Freund’s adjuvant were administered 15 and 25 days later. On […], the mice were bled and used for ELISA experiments in 96-well microtitration plates (catalog number M5785-1CS Sigma Aldrich, MO, USA). […] The optimal dilution of the immune serum resulting in half-maximum binding of MTX to its specific antiserum was determined to be 1/100,000.
The specificity of anti-MTX against MTX1 and CHTX toxins was assessed using ELISA. One hundred microliters of 5 μg/mL of antigen (MTX1 and CHTX) in 0.1 M sodium bicarbonate buffer at pH 9.6 were adsorbed on 96-well NUNC plates for 90 min at 37 °C. […] Finally, 200 μL of 0.4 mg/mL OPD in citrate buffer (pH 5.2 containing H2O2 (0.03%) was added to each well, followed by a 5 min incubation in the dark at room temperature. The reaction was halted by adding 50 μL of 2 N sulfuric acid. The absorbance at 492 nm was measured using a spectrophotometer (Thermo-Multiskan EX, Shanghai, China). The immune serum titer corresponded to the dilution that yielded 50% of the maximum absorbance.

[3] = tested on: 125I-apamin binding site of rat brain synaptosomes (SKCa channels); assay: Competition binding with 125I-apamin on rat brain synaptosomes (SKCa channels)
Procedure: The rats were euthanized by dislocation and their brains were rapidly removed and placed on a cold plate. The brain tissue was suspended in a 10% (w/v) sucrose-HEPES buffer in a polytron homogenizer with a protease inhibitor. Synaptosomal membranes were prepared as previously described. The protein content of the membranes, determined by the […], was 0.92 µg/µL. The protein content was determined using a modified Lowry method, with assays conducted on the synaptosomal fraction P2 isolated from rat brain. MTX1 was reacted with Na [^125I] (Amersham Biosciences, Buckinghamshire, United Kingdom) in the presence of lactoperoxidase and H2O2 in 50 mM phosphate buffer at pH 7.2. The separation of free iodine was achieved by anion exchange chromatography using Dowex 1X-8 (Merck, Darmstadt, Germany). The mixture was then injected into a reverse-phase HPLC column (analytical RP-C18 Beckman, Ultrasphere, 5 μm, 4.6 × 250 mm). Solvent A consisted of 0.1% trifluoroacetic acid (v/v) in water, and solvent B consisted of 0.1% trifluoroacetic acid (v/v) in acetonitrile. The HPLC experiments were performed as previously described. Radioactivity was quantified using a Packard spectrometer (Crystal I1 multidetector system, San Francisco, CA, USA) with the native toxin eluted at 18 min. The iodination mixture yielded only two peaks (RT = 2 min and RdT = 25 min); approximately 70–85% of the radioactivity was linked to the peak (RT = 25 min), which was postulated to correspond to the mono-iod derivative.
4.10. Binding Assay for SKCa Channels
The process of iodination of apamin was executed utilizing IODO-GEN. In displacement assays, 50 μL of 0.1 nM ^125I-apamine (2000 Ci/mmol) was combined with 400 µL of synaptosome suspension (0.4 mg protein/mL). The samples were incubated with 50 µL of one of the competitor concentration series (MTX1, MTX or CHTX) in a final volume of 500 µL for 1 h at 0 °C. The incubation buffer consisted of 25 mM hydroxymethyl amino methane (Tris-HCl) (pH 7.2), 10 mM potassium chloride (KCl) and 0.1% BS. Following centrifugation for 10 min, the samples were centrifuged again and the resulting pellets were washed three times with 2 mL of the same buffer. The quantification of bound radioactivity was conducted utilizing (Packard Crystal II). The mean values of triplicate experiments are reported. Non-specific binding, characterized as less than 10% of total binding, was determined in the presence of an excess (10 nM) of unlabeled apamin.

rat Kv1.3 = target: T1, rat Kv1.3 (Rattus norvegicus, UniProt P15384); assay: Two-electrode voltage clamp, Kv1.3 expressed in Xenopus laevis oocytes; format: cell-based
T1 construct: expressed in transfected cells; host or cells: Xenopus laevis oocytes, cRNA injection
T1 sequence (P15384 whole entry): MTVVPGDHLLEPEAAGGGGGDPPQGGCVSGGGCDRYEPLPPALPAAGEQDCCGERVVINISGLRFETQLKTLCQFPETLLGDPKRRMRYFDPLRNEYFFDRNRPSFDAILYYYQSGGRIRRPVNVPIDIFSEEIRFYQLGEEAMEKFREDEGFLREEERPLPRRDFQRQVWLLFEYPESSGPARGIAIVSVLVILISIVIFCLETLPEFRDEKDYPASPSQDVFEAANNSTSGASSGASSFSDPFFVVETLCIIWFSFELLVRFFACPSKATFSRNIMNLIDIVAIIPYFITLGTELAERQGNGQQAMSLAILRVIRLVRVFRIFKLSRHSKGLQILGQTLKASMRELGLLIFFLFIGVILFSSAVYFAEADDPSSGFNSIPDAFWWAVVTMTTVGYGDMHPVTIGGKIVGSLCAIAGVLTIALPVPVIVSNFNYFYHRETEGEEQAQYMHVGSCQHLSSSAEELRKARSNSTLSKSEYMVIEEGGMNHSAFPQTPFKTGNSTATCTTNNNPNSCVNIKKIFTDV
Excerpt: (§2) 4.11. Oocyte Preparation and Electrophysiological Recordings
(§3) The xenopus was anesthetized in a bath of tricaine solution. It was then placed on its back in a dissecting tank covered with alcohol-cleaned BenchGuard paper. A horizontal slit was made in the animal’s lower abdomen by incising a piece of the underlying muscle with the skin. The ootheca were then gently pulled outwards and a portion was cut out and transferred to a sterile Erlen tube containing MBS medium, leaving the rest in place in the ovary. Finally, the incision was closed using sterile, absorbable sutures.
(§4) Xenopus laevis oocytes at stages V and VI were retrieved and prepared for cRNA injection and electrophysiological recordings. The enzymatic elimination of oocyte follicular cell layers was carried out by employing 2 mg·mL^−1 collagenase IA (Sigma, St. Louis, MO, USA) in the classical Barth’s medium containing (in mm) 88 NaCl, 1 KCl, 0.82 MgSO4, 0.33 Ca(NO3)2, 0.41 CaCl2, 2.4 NaHCO3, and 15N-2-hydroxyethylpiperazine-N′-ethanesulfonic acid (Hepes), with a pH of 7.4 (NaOH). The plasmids were digested using Xba1 (rat Kv1.2) and EcoR1 (rat Kv1.3). The resultant linearized plasmids were transcribed using either a T7 or SP6 mMessage mMachine transcription kit (Ambion, Austin, TX, USA). Subsequently, cRNAs (1 µg·µL^−1) were cryopreserved in H2O at −80 °C. Injection of cells with 50 nL of cRNA (0.2 µg·µL^−1 rat Kv1.2, or Kv1.3 channels) took place 2 days later. To promote the expression of ion channels, the cells were cultured at 16 °C in a specified nutrient oocyte medium for 2–6 days prior to conducting current recordings. Oocyte currents were captured at 20–22 °C using conventional two-microelectrode techniques with a voltage-clamp amplifier (GeneClamp 500; Axon Instruments, Foster City, CA, USA) linked to a 16-bit AD/DA converter (Digidata 1200A, Axon Instruments). […] Voltage pulses were administered every 15 s, maintaining a holding potential of −80 mV. Current data were sampled at 10 kHz, subjected to low-pass filtration at 2 kHz through an eight-pole Bessel filter and archived on a computer for subsequent assessment. The extracellular solution for recording contained (in mM) 88 NaCl, 10 KCl, 2 MgCl2, 0.5 CaCl2, 0.5 niflumic acid, 5 Hepes, and 0.1% bovine serum albumin, with a pH of 7.4 (NaOH). The P/4 protocol was implemented for online subtraction of the leak and capacitive currents. Any residual capacitive artifacts were eliminated for visualization purposes. The peptide solutions of MTX1 were perfused into the recording chamber at a flow rate of 2 mL/min using a ValveBank4 apparatus (Automate Scientific Inc., St Berkeley, CA 94710, USA). Data analysis was conducted using the software patch clamp 6.0.3 (Axon Instruments, Foster City, CA, USA). The outcomes are presented as the mean ± SEM.

[4] = tested on: 125I-CHTX binding site of rat brain synaptosomes (Kv channels); assay: Competition binding with 125I-CHTX on rat brain synaptosomes; details: conclusion in words
rat Kv1.2 = target: T2, rat Kv1.2 (Rattus norvegicus, UniProt P63142); assay: Two-electrode voltage clamp, Kv1.2 expressed in Xenopus laevis oocytes; format: cell-based
T2 construct: expressed in transfected cells; host or cells: Xenopus laevis oocytes, cRNA injection
T2 sequence (P63142 whole entry): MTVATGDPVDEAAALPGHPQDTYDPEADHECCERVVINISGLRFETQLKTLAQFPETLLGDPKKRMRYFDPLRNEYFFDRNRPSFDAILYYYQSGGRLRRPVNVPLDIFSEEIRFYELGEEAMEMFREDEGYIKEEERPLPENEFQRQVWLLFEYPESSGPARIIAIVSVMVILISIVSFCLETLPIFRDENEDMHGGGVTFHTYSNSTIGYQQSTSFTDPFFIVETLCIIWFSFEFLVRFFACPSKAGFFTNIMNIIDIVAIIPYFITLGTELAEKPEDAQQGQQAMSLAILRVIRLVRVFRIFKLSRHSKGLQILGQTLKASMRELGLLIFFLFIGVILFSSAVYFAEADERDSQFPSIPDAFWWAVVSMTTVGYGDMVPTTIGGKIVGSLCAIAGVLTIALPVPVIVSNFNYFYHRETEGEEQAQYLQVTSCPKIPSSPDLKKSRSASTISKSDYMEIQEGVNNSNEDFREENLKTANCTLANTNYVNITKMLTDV
Excerpt: as §2, §3, §4

C57BL/6 mice = assay: Neurotoxic activity in mice by intracerebroventricular injection (LD50); format: in vivo, mouse
Procedure: 4.5. The Neurotoxic Activity of MTX1 in Mice
To assess the LD50 of the MTX1, different doses of the peptide were administered to males C57BL/6 mice (20 ± 2 g) by an intracerebroventricular injection under ether anesthesia, which is considered the most sensitive route for scorpion toxins in mammals. Each dose was suspended/diluted in 5 μL of 0.1% (w/v) BSA and tested on six mice. Symptoms of toxicity were observed and recorded over a 24 h period. The median lethal dose (LD50) corresponds to the dose required to kill half of the tested mice.

[5] = tested on: human lung adenocarcinoma cells; details: by blocking Kv1.2 and Kv1.3; ref [15],[16]; cited from earlier work
Excerpt: as §1

[6] = comparison in words (Kv1.2 and SKCa channels together)
[7] = 2.5 nM, extracellular application
[8] = kinetics of inhibition, after washing
[9] = oocytes, one value printed for Kv1.2 and Kv1.3

In the case of “iberiotoxin (QFTDVDCSVSKECWSVCKDLFGVDRGKCMGKKCRCYQ; UniProt P24663 1-37, looked up)”, the “Inhibition of tumor cell proliferation and migration” value [1] is given as “able to inhibit glioma and melanoma cell proliferation and migration”.

In the case of chlorotoxin, the “Effect on glioblastoma cells” value (glioblastoma) is listed as “specifically targets the invasion and migration of glioblastoma cells”.

For `CSCC[C@@H]1NC(=O)[C@@H]2CSSC[C@H](NC(=O)[C@H](CO)NC(=O)[C@@H](N)C(C)C)C(=O)N[C@@H]([C@@H](C)O)C(=O)NCC(=O)N[C@@H](CO)C(=O)N[C@@H](CCCCN)C(=O)N[C@@H](CCC(=O)O)C(=O)N[C@@H](CSSC[C@@H](C(=O)N[C@@H](CCCCN)C(=O)N[C@H]3CSSC[C@@H](C(N)=O)NC(=O)CNC(=O)[C@H](Cc4ccc(O)cc4)NC3=O)NC(=O)[C@H](CCCCN)NC(=O)[C@H](CCCNC(=N)N)NC(=O)[C@H](CC(N)=O)NC1=O)C(=O)N[C@@H](Cc1ccc(O)cc1)C(=O)N[C@@H](C)C(=O)N1CCC[C@H]1C(=O)N[C@H]1CSSC[C@H](NC(=O)CNC(=O)[C@H]([C@@H](C)O)NC(=O)[C@H](CCC(N)=O)NC(=O)[C@H](CCCCN)NC(=O)[C@H](CCCCN)NC1=O)C(=O)N1CCC[C@H]1C(=O)N[C@@H](CC(N)=O)C(=O)N[C@@H](C)C(=O)N[C@@H](CCCCN)C(=O)N2` [MTX1] (H-VSCTGSKECYAPCKKQTGCPNAKCMNRKCKCYGC-NH2; disulfide 3-24, 9-29, 13-19, 31-34; N-terminus and C-terminus assumed), the “Recognition by anti-MTX antibodies” value ([2]; different dilutions of anti-MTX mice polyclonal antibodies) was “well recognized by anti-MTX antibodies; also recorded: distinctly recognized”, the “IC50 of anti-MTX serum binding relative to MTX” value ([2]; plates coated with 5 µg/mL antigen) was “identical” and the “Potency on SKCa channels relative to MTX” value [3, 6] was “higher binding affinity; also recorded: significantly more effective at inhibiting the Kv1.2 currents and SKCa channels”. For the same molecule, the “Affinity relative to MTX, apamin-sensitive SKCa channels” value ([3]; comparison of IC50 of MTX1 with IC50 of MTX (5 nM)) was “almost three times higher than that of MTX”, the IC50 ([3]; rat brain synaptosomes (0.4 mg protein/mL), 50 μL of 0.1 nM 125I-apamin, 1 h, 0 °C, pH 7.2, mean of triplicate, read-out: IC50, inhibition of 125I-apamin binding) was 1.7 nM and the “Recognition of apamin receptor sites” value ([3]; rat brain synaptosomes, conclusion in words) was “recognizes apamin receptor sites with a high affinity and binds partially with these sites”. The “Reduction of outward Kv1.3 currents over voltage” value (rat Kv1.3; [7]) was “markedly reduced outward Kv1.2 and Kv1.3 currents at all test voltages examined”, the “Block of Kv1.3 relative to MTX” value (rat Kv1.3; comparison in words) was “comparable effect to MTX; also recorded: in a comparable manner to MTX” and the “Reversibility on washing, Kv1.3” value (rat Kv1.3; [8]) was “partial recovery after the washing”. The “Hill coefficient, Kv1.3 concentration-response” value (rat Kv1.3; [9]) was 1.1 ± 0.1, the “Interaction with the CHTX-binding site” value [4] was “partially interacted with the CHTX-binding site” and the “IC50 on Kv1.2 relative to MTX” value (rat Kv1.2; 0.26 nM of MTX1 against 0.8 nM of MTX) was “three times lower than that of MTX”. The “Reduction of outward Kv1.2 currents over voltage” value (rat Kv1.2; [7]) was “markedly reduced outward Kv1.2 and Kv1.3 currents at all test voltages examined”, the inhibition at 0.0025 µM (rat Kv1.2; 2.5 nM, oocytes, read-out: Inhibition of Kv1.2 currents) was 90% and the “Potency on Kv1.2 relative to MTX” value (rat Kv1.2; [6]) was “higher binding affinity; also recorded: more active than MTX on the Kv1.2 channel; also recorded: significantly more effective at inhibiting the Kv1.2 currents and SKCa channels”. For the same molecule, the “Reversibility on washing, Kv1.2” value (rat Kv1.2; [8]) was “partial recovery after the washing”, the “Hill coefficient, Kv1.2 concentration-response” value (rat Kv1.2; [9]) was 1.1 ± 0.1 and the “Toxicity in mice (qualitative)” value (C57BL/6 mice; i.c.v. injection) was “highly toxic”. For the same molecule, the “Toxicity in mice relative to MTX” value (C57BL/6 mice; i.c.v., LD50 comparison with MTX) was “approximately eight times more lethal than MTX; also recorded: eight times more effectively than MTX; also recorded: eight times more toxicity than MTX”, the “Dose with maximum fatality rate” value (C57BL/6 mice; i.c.v., doses 4, 6, 8, 10, 15 and 20 ng, six mice each) was 20 ng and the Time to death (C57BL/6 mice; i.c.v., doses 4–20 ng) was 10 min. For the same molecule, the LD50 (C57BL/6 mice; i.c.v., male C57BL/6 mice (20 ± 2 g), six mice per dose, 4–20 ng, observed 24 h) was 10 ng per mouse and the LD50 (C57BL/6 mice; i.c.v., mice) was 0.01 μg/mouse.

In the case of “margatoxin (TIINVKCTSPKQCLPPCKAQFGQSAGAKCMNGKCKCYPH; UniProt P40755 1-39, looked up)”, the Inhibition of proliferation [5] is listed as “inhibited the proliferation of human lung adenocarcinoma cells”.

From article PMC11477167, “Structure–Function Relationship of a Novel MTX-like Peptide (MTX1) Isolated and Characterized from the Venom of the Scorpion Maurus palmatus” (International Journal of Molecular Sciences, 2024)
